{"source": "patent US20050100888A1", "about": "“Methods based on hormone dependency of primary cancer cells” (Imperial College Innovations Limited, priority 2002, published 2005)", "key": {"estrogen receptor (ER) [1]": {"biological_target": "T1, estrogen receptor (ER) (Homo sapiens, UniProt P03372)", "T1 sequence (P03372 1-595)": "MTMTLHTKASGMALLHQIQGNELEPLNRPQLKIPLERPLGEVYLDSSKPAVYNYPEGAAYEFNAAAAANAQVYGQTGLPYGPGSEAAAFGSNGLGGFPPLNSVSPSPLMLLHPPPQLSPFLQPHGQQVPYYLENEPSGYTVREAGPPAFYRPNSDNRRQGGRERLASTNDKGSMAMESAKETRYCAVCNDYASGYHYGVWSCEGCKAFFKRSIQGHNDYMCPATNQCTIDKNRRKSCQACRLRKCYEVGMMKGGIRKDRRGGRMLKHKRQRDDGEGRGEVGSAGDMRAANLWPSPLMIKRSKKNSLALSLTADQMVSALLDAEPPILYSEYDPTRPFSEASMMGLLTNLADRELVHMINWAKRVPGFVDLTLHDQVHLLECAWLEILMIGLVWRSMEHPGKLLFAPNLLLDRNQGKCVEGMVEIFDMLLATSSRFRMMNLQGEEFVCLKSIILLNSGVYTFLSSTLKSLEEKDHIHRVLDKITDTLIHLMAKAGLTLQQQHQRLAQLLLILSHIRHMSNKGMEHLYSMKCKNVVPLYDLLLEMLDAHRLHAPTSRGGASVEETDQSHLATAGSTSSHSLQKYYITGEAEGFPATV", "details": "antagonist at 10^−7M; MCF7, virus 100:1, 48 hours", "procedure": "(§1) Cells were incubated for 48 hours following infections unless stated otherwise.\n(§2) Reporter Gene Assay 48 hours after virus infection, 20 ul of 20% Triton in PBS was added to each well and incubated at RT for 10 minutes. […] (CRPG) made up in TBS at a concentration of 8 mg/ml was then added to the wells and the plate was incubated, foil-wrapped, at 37° C. until a colour change was observed. Plate readings were taken at a wavelength of 547 nm."}, "estrogen receptor (ER) [2]": {"biological_target": "T1, estrogen receptor (ER)", "assay": "adeno-reporter assay in purified primary breast cancer cells (tumour, lymph node)", "format": "cell-based", "details": "E2 10 nM, OHT 100 nM, ICI 100 nM, 48 h", "procedure": "(§3) The product was then filtered through a nylon mesh (Lockertex Ltd, Merseyside, UK) and the filtrate centrifuged at 2000 rpm, at room temperature (RT). The pellet was re-suspended in 9 mls of RPMI/1% FCS and a cell count performed to estimate the number of tumour cells in the preparation. […] A count of viable tumour cells was performed using trypan blue (Sigma, Poole, UK) prior to seeding in breast complete medium (DMEM/F-12 containing, 15 mM Hepes, 2 mM L-glutamine, 100U/ml penicillin, O. 1 mg/ml streptomycin, 50 U/ml polymixin B, 2.5 μg/ml amphotericin B, 5 μg/ml insulin, 10 μg/ml apo-transferrin, 100 μM ethanolamine, 1 μg/ml hydrocortisone, 10 ng/ml EGF) plus 5% FCS) for culture. The cells were used for experiments on day 3 after the initial plating.\n(§4) For infections of primary cells, 6-10,000 cells/well were allowed and exposed to the given quantity of virus, after which they were pelleted and re-supended in 200 ul of PR free/5% DSS medium containing the appropriate ligands prior to plating into 96-well plates.\nas §1, §2\n(§5) We have used the adeno-reporter to infect purified cells from breast cancer and lymph nodes of 19 patients. The reporter assay was performed in a blinded fashion since the IHC report of ER status was not available until after the experiments were complete. Viral infections were performed in suspension so as not to loose cancer cells since they were only loosely adherent. Following exposure to the virus for an hour, the cells were washed to remove excess virus and then plated and incubated in PR free/5% DSS supplemented with the given ligands for 48 hours."}, "estrogen receptor (ER) [3]": {"system": "estrogen receptor (ER)", "assay": "adeno-reporter assay in purified primary breast cancer cells (tumour, lymph node)", "format": "cell-based, human", "details": "for Reporter response: E2 10 nM, OHT 100 nM, ICI 100 nM, 48 h", "procedure": "as §3, §4, §1, §2, §5"}, "estrogen receptor (ER) [4]": {"system": "estrogen receptor (ER)", "assay": "adenoERreporter assay in breast cancer cells from metastatic effusions (pleural, ascites)", "format": "cell-based, human", "from_the_text": "In the case of metastatic fluid, 100 mls of the fluid was sent for cytological examination and staining for ER and PR. The remaining fluid was centrifuged and the cell pellets were pooled. This was re-suspended in RPMI-1640/1% FCS and tumour cell numbers estimated as before. If the cells were in clusters, trypsin/EDTA (Sigma, Poole, UK) was used to obtain single cell suspensions before filtering to remove any debris. The remaining steps were as above. The purified cells were either infected immediately or cultured for a few days prior to infection.\nas §4, §2\nWe purified breast cancer cells from metastatic fluid, both pleural and ascites as well as fine needle aspirates (FNA) from recurrent breast cancer. These cells were counted and infected with adenoERreporter and after 48 hours a β-gal assay was performed. We have infected 9 metastatic effusions including 2 cell lines of passage number two, derived from pleural effusions and 4 FNAs. Tables 3 and 4 show the treatment history and characteristics of the patients that provided the samples. Where possible, some of the fluid was sent for cytology and ER staining."}, "estrogen receptor (ER) [5]": {"system": "estrogen receptor (ER)", "assay": "viral ER reporter in ER negative breast cancer cell lines", "format": "cell-based, human", "details": "virus 100:1", "procedure": "FIG. 3: Reporter activity in variety of estrogen receptor alpha positive (MCF-7, T47-D, ZR75-1, BT474) and negative (Cal-51, SkBr3, and MDA-MB231 cell lines). For each figure, the order is as follows: (1) refers to the no ligand control.\nFor adenovirus infections, cell lines were plated in 96 wells at the given density in phenol red free DMEM supplemented with 5% double-stripped serum (PR/5% DSS). The following day cells were exposed to the given quantity of plaque forming units per cell (multiplicity of infection, MOI) in PR/SF medium. This was incubated at 37° C. for 1 hour after which the media was replaced by PR free/5% DSS containing the ligands.\nas §2\nWe went on to test the virus reporter in a variety of ER positive and ER negative cell lines. Again 0.5×10^5 cells were infected with 100 virus per cell (100:1). Using the GFP virus it was evident that the infectability of the cell lines was variable. […]"}}}
{"smiles": "C[C@]12CC[C@@H]3c4ccc(O)cc4C[C@@H](CCCCCCCCC[S+]([O-])CCCC(F)(F)C(F)(F)F)[C@H]3[C@@H]1CC[C@@H]2O", "note": "(stereo partly shown) [ICI 182,780]", "values": [{"measurement": "effect on E2 induced reporter activity", "setting": "estrogen receptor (ER) [1]", "value": "blocked E2 induced reporter activity"}, {"measurement": "Reporter response", "setting": "estrogen receptor (ER) [2]; Table 2 patient 6, ER+++/PR+++", "value": "inh"}, {"measurement": "Reporter response", "setting": "estrogen receptor (ER) [2]; Table 2 patient 7, ER+++/PR+++, Post", "value": "inh"}, {"measurement": "Reporter response", "setting": "estrogen receptor (ER) [3]; Table 2 patient 3 Ln", "value": "inh"}, {"measurement": "Reporter response", "setting": "estrogen receptor (ER) [3]; Table 2 patient 5 Ln, ER+/PR−, Pre", "value": "ns"}, {"measurement": "Reporter response", "setting": "estrogen receptor (ER) [3]; Table 2 patient 8, ER+++/PR−, Post", "value": "ns"}, {"measurement": "Reporter response", "setting": "estrogen receptor (ER) [3]; Table 2 patient 11, receptor status ?", "value": "inh"}, {"measurement": "Reporter response", "setting": "estrogen receptor (ER) [3]; Table 2 patient 12 Ln", "value": "ns"}, {"measurement": "Reporter response", "setting": "estrogen receptor (ER) [3]; Table 2 patient 12 Tu, Anaplastic small cell carcinoma, ER−/PR−", "value": "ns"}, {"measurement": "Reporter response", "setting": "estrogen receptor (ER) [3]; Table 2 patient 13, ER−/PR−, Post", "value": "ns"}, {"measurement": "Reporter response", "setting": "estrogen receptor (ER) [3]; Table 2 patient 15 Ln", "value": "ns"}, {"measurement": "Reporter response", "setting": "estrogen receptor (ER) [3]; Table 2 patient 15 Tu, ER−/PR−", "value": "ns"}, {"measurement": "Reporter response", "setting": "estrogen receptor (ER) [3]; Table 2 patient 16 Ln", "value": "ns"}, {"measurement": "Reporter response", "setting": "estrogen receptor (ER) [3]; Table 2 patient 16 Tu, Post", "value": "ns"}, {"measurement": "Reporter response", "setting": "estrogen receptor (ER) [3]; Table 2 patient 17", "value": "ns"}, {"measurement": "Reporter response", "setting": "estrogen receptor (ER) [3]; Table 2 patient 18, ER−/PR−", "value": "ns"}, {"measurement": "effect on reporter activity across patient samples", "setting": "estrogen receptor (ER) [3]; purified cells from breast cancer and lymph nodes of 19 patients", "value": "inhibitory in all cases"}, {"measurement": "Reporter Activity", "setting": "estrogen receptor (ER) [4]; Table 3 patient 7) T4G3N1M0, Ascites, ER−/PR−, no prior endocrine treatment", "value": "x1.0"}, {"measurement": "Reporter Activity", "setting": "estrogen receptor (ER) [4]; Table 3 patient 8) T1G1N1M0, Ascites, primary ER−/PR+, recurrent ER++/PR−, prior LHRH 11m, Arimidex", "value": "↓↓"}, {"measurement": "effect on ER activity", "setting": "estrogen receptor (ER) [4]; patient 4 (table 3), ascites, no previous treatment", "value": "inhibitory"}, {"measurement": "proportion of cases in which inhibitory", "setting": "estrogen receptor (ER) [4]; relapsed patients, metastatic effusions and FNAs", "value": 50, "unit": "%"}, {"measurement": "effect on ERE driven β-gal reporter / baseline activity", "setting": "estrogen receptor (ER) [5]", "value": "did not have a significant effect on the baseline activity"}]}
